Test results published in ChEMBL document CHEMBL6096703 (J Med Chem, 2025).
Calls of active or inactive are those of the source. The rule behind the calls is not given here.

Assays:
[1] = molecular target: T1, Poly [ADP-ribose] polymerase 1 (Homo sapiens, UniProt P09874); experiment: Inhibition of PARP1 (unknown origin) preincubated with compound for 10 mins followed by DNA and NAD+ addition and measured after 60 mins by chemiluminescence based envision reader analysis
[2] = AUC(0 to t) in rat at 2.5 mg/kg, po measured upto 96 hrs by LC-MS/MS analysis; assay type: ADME, organism-based; conditions: in vivo
MDA-MB-436 [3] = experiment: Antitumor activity against human MDA-MB-436 cells xenografted in female NOD/SCID mouse assessed as tumor regression rate at 1 mg/kg, po administered once every other day for 28 days relative to control; assay type: functional; conditions: time 28 day
[4] = Acute toxicity in Kunming mouse assessed as change in cellular morphology of heart at 100 mg/kg administered once every other day via gavage for 14 days by H and E staining based analysis; assay type: organism-based; conditions: in vivo, po, 336 h, time 14 day
[5] = Toxicity in female NOD/SCID mouse xenografted with human MDA-MB-436 cells assessed as histological changes in heart at 3 mg/kg, po administered once every other day for 28 days by H and E staining based analysis; assay type: organism-based; conditions: in vivo, 672 h, time 28 day
MDA-MB-436 [6] = experiment: Induction of DNA damage in human MDA-MB-436 cells assessed as increase in tail intensity at 100 to 1000 nM incubated for 3 days by PI staining based fluorescence microscopic analysis; assay type: functional, cell-based; conditions: dose 100-1000 nM, time 3.0 day
[7] = Sub-acute toxicity in Kunming mouse assessed as change ASTL level at 30 to 100 mg/kg administered via gavage once every other day for 14 days; assay type: organism-based; conditions: in vivo, po, 336 h, dose 30-100 mg/kg, time 14 day
[8] = Toxicity in female NOD/SCID mouse xenografted with human MDA-MB-436 cells assessed as change in body weight at 0.3 to 3 mg/kg, po administered once every other day for 28 days and measured every 2 days; assay type: organism-based; conditions: in vivo, 672 h, dose 0.3-3 mg/kg, time 28 day
MDA-MB-436 [9] = experiment: Induction of cell cycle arrest in human MDA-MB-436 cells assessed as accumulation of cells at G2/M phase at 1 nM incubated for 3 days by PI staining based flow cytometric analysis (Rvb =24.88%); assay type: functional; conditions: time 3 day
[10] = Acute toxicity in Kunming mouse assessed as change in kidney structure at 300 mg/kg administered via gavage for 14 days by H and E staining based analysis; assay type: organism-based; conditions: in vivo, po, 336 h, time 14 day
[11] = Apparent volume of distribution in male Balb/c mouse at 1 mg/kg, iv measured upto 96 hrs by LC-MS/MS analysis; assay type: ADME, organism-based; conditions: in vivo, iv, 1 mg/kg, 96 h
[12] = AUC(0 to t) in rat at 2.5 mg/kg, iv measured upto 96 hrs by LC-MS/MS analysis; assay type: ADME, organism-based; conditions: in vivo
[13] = Sub-acute toxicity in Kunming mouse assessed as change ALB2 level at 100 to 300 mg/kg administered via gavage for 14 days; assay type: organism-based; conditions: in vivo, po, 336 h, dose 100-300 mg/kg, time 14 day
[14] = molecular target: T1, Poly [ADP-ribose] polymerase 1; experiment: Inhibition of PARP1 in wild type human A549 cells preincubated with compound for 1 hr followed by H2O2 addition and measured after 5 mins by PARylation inhibition assay; assay type: cell-based
MDA-MB-436 [15] = experiment: Induction of cell cycle arrest in human MDA-MB-436 cells assessed as accumulation of cells at S phase at 1 nM incubated for 3 days by PI staining based flow cytometric analysis (Rvb =18.94%); assay type: functional; conditions: time 3 day
[16] = Sub-acute toxicity in Kunming mouse assessed as change ALB2 level at 30 to 100 mg/kg administered via gavage once every other day for 14 days; assay type: organism-based; conditions: in vivo, po, 336 h, dose 30-100 mg/kg, time 14 day
[17] = Apparent volume of distribution in male Balb/c mouse at 1 mg/kg, po measured upto 96 hrs by LC-MS/MS analysis; assay type: ADME, organism-based; conditions: in vivo
[18] = Acute toxicity in Kunming mouse assessed as change in body weight at 100 to 300 mg/kg administered orally via gavage for 14 days; assay type: organism-based; conditions: in vivo, po, 336 h, dose 100-300 mg/kg, time 14 day
[19] = Cmax in male Balb/c mouse at 1 mg/kg, iv measured upto 96 hrs by LC-MS/MS analysis; assay type: ADME, organism-based; conditions: in vivo
[20] = Acute toxicity in Kunming mouse assessed as change in cellular morphology of liver at 100 mg/kg administered once every other day via gavage for 14 days by H and E staining based analysis; assay type: organism-based; conditions: in vivo, po, 336 h, time 14 day
[21] = Tmax in male Balb/c mouse at 1 mg/kg, po measured upto 96 hrs by LC-MS/MS analysis; assay type: ADME, organism-based; conditions: in vivo
MDA-MB-436 [22] = experiment: Inhibition of colony formation in human MDA-MB-436 cells assessed as reduction in survival rate incubated for 10 days by crystal violet staining based assay; assay type: functional, cell-based; conditions: dose 0.1-100 nM, time 10.0 day
MDA-MB-436 [23] = experiment: Induction of cell cycle arrest in human MDA-MB-436 cells assessed as accumulation of cells at G2/M phase at 10 nM incubated for 3 days by PI staining based flow cytometric analysis (Rvb =24.88%); assay type: functional; conditions: time 3 day
[24] = Clearance in rat at 2.5 mg/kg, iv measured upto 96 hrs by LC-MS/MS analysis; assay type: ADME, organism-based; conditions: in vivo
[25] = Half life in rat at 2.5 mg/kg, iv measured upto 96 hrs by LC-MS/MS analysis; assay type: ADME, organism-based; conditions: in vivo
MDA-MB-436 [26] = experiment: Antitumor activity against human MDA-MB-436 cells xenografted in female NOD/SCID mouse assessed as weaker Ki67 staining at 0.3 to 3 mg/kg, po administered once every other day for 28 days by immunohistochemical analysis; assay type: functional, organism-based; conditions: dose 0.3-3 mg/kg, time 28.0 day
DLD-1 = experiment: Induction of DNA damage in BRCA2 knockout human DLD-1 cells assessed as increase in tail intensity at 100 to 1000 nM incubated for 3 days by PI staining based fluorescence microscopic analysis; assay type: functional, cell-based; conditions: dose 100-1000 nM, time 3.0 day
[27] = AUC(0 to t) in male Balb/c mouse at 1 mg/kg, po measured upto 96 hrs by LC-MS/MS analysis; assay type: ADME, organism-based; conditions: in vivo, po, 1 mg/kg, 96 h
[28] = Sub-acute toxicity in Kunming mouse assessed as change CREA2 level at 100 to 300 mg/kg administered via gavage for 14 days; assay type: organism-based; conditions: in vivo, po, 336 h, dose 100-300 mg/kg, time 14 day
[29] = Sub-acute toxicity in Kunming mouse assessed as change ALTL level at 100 to 300 mg/kg administered via gavage for 14 days; assay type: organism-based; conditions: in vivo, po, 336 h, dose 100-300 mg/kg, time 14 day
[30] = Toxicity in female NOD/SCID mouse xenografted with human MDA-MB-436 cells assessed as histological changes in lung at 3 mg/kg, po administered once every other day for 28 days by H and E staining based analysis; assay type: organism-based; conditions: in vivo, 672 h, time 28 day
[31] = Acute toxicity in Kunming mouse assessed as mortality at 100 to 300 mg/kg administered orally via gavage for 14 days; assay type: organism-based; conditions: in vivo, po, 336 h, dose 100-300 mg/kg, time 14 day
[32] = Half life in male Balb/c mouse at 1 mg/kg, po measured upto 96 hrs by LC-MS/MS analysis; assay type: ADME, organism-based; conditions: in vivo, po, 1 mg/kg, 96 h
[33] = molecular target: T1, Poly [ADP-ribose] polymerase 1; experiment: Inhibition of PARP1 in PARP2 knockout human A549 cells preincubated with compound for 1 hr followed by H2O2 addition and measured after 5 mins by selective targeting PARylation inhibition assay; assay type: cell-based
[34] = Sub-acute toxicity in Kunming mouse assessed as change ALTL level at 30 to 100 mg/kg administered via gavage once every other day for 14 days; assay type: organism-based; conditions: in vivo, po, 336 h, dose 30-100 mg/kg, time 14 day

T1 sequence (P09874 whole entry): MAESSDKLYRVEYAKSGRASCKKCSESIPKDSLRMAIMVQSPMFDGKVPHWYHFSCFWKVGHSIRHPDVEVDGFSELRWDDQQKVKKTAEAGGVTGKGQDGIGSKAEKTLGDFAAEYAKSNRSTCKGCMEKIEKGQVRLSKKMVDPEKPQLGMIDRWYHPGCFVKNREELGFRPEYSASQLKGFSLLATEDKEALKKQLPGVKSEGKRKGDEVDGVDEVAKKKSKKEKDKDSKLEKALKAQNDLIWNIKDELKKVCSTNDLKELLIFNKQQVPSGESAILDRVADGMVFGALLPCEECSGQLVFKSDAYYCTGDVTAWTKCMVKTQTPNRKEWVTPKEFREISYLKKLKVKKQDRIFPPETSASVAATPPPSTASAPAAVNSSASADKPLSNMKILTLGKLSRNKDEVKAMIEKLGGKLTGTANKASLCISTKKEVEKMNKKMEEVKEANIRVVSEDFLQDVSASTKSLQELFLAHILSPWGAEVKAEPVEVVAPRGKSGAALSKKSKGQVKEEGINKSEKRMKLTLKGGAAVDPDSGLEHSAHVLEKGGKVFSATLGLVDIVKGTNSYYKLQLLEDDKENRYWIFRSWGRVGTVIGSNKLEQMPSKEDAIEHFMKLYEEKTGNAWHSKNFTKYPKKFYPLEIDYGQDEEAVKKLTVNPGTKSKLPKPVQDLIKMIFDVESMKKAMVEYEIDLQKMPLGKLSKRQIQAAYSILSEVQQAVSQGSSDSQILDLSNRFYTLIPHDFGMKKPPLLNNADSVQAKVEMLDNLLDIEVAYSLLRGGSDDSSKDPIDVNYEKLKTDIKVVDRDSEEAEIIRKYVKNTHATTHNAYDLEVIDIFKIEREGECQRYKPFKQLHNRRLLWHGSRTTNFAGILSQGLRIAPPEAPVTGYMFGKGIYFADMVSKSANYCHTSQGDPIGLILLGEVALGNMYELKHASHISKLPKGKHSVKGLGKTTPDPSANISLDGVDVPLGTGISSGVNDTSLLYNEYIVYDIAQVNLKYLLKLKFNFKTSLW

For `CCc1cc2ncc(CN3CC=C(c4ccc(C#N)cn4)CC3)cc2[nH]c1=O`, the IC50 [1] was 0.2 nM, the AUC(0-t) at 96 h [2] was 520 µg·h/mL and the Activity (MDA-MB-436 [3]) was 59.4%. The Activity [4] was “Non-toxic”, the Activity [5] was “Non-toxic” and the Activity (MDA-MB-436 [6]) was “Active”. For the same compound, the Activity [7] was “Non-toxic”, the Activity [8] was “Non-toxic” and the Activity (MDA-MB-436 [9]) was 28.04%. The Activity [10] was “Non-toxic”, the Vz [11] was 0.16 L/kg and the AUC(0-t) at 96 h [12] was 510 µg·h/mL. The Activity [13] was “Non-toxic”, the IC50 [14] was 4.1 nM and the Activity (MDA-MB-436 [15]) was 14.99%. The Activity [16] was “Non-toxic”, the Vz [17] was 0.13 L/kg and the Activity [18] was “Non-toxic”. For the same compound, the Cmax [19] was 10700 ng/mL, the Activity [20] was “Non-toxic” and the Tmax [21] was 8.33 h. The inhibition (MDA-MB-436 [22]) was “Dose-dependent-effect”, the Activity (MDA-MB-436 [23]) was 29.58% and the clearance [24] was 0.167 mL/min/kg. The half-life [25] was 27.8 h, the Activity (MDA-MB-436 [26]) was “Active” and the Activity (DLD-1) was “Active”. The AUCt [27] was 787.38372 µg·h/mL, the Activity [28] was “Non-toxic” and the Activity [29] was “Non-toxic”. For the same compound, the Activity [30] was “Non-toxic”, the Activity [31] was “Non-toxic” and the t1/2 [32] was 76.07 h. For the same compound, the IC50 [33] was 0.9 nM and the Activity [34] was “Non-toxic”.
